Consider 24 compounds from US20230078764A1 (Yumanity Therapeutics, Inc., priority 2019, published 2023).

One experiment deals with T1, human SCD5 (Homo sapiens, UniProt Q86SK9).
T1 construct: expressed in transfected cells; host or cells: yeast strain with OLE1 deleted, plasmid-borne human SCD5 (selected in SD-Ura)
T1 sequence (Q86SK9 1-330): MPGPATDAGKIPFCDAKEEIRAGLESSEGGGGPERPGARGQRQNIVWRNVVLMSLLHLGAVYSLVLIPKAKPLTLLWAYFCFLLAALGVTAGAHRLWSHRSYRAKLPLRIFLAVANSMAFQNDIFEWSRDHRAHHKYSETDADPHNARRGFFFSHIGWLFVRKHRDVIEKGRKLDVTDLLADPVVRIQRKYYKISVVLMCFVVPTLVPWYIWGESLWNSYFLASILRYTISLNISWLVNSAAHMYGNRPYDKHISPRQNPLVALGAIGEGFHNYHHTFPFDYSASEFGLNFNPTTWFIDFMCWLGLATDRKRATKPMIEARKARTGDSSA
In words: Growth inhibition of yeast strain expressing human SCD5 as sole desaturase (OLE1 deleted), OD600 readout. The format is cell-based. Conditions: yeast strain expressing human SCD5 as sole desaturase; growth (OD600) after 40 h at 30° C.; read-out: SCD5 IC50.

The next experiment concerns the target T2, human SCD1 (Homo sapiens, UniProt O00767).
T2 construct: expressed in transfected cells; host or cells: yeast strain with OLE1 deleted, plasmid-borne human SCD1 (selected in SD-Ura)
T2 sequence (O00767 1-359): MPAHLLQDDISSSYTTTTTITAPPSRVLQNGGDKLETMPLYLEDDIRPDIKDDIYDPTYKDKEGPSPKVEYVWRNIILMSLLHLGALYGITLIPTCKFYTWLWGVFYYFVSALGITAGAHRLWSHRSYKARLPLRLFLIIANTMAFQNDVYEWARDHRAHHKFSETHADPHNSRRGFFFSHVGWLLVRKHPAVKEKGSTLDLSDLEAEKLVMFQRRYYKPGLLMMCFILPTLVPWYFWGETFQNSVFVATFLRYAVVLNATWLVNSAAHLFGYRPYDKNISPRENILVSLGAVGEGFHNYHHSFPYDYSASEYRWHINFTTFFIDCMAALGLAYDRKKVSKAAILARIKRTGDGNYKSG
The experiment is described as follows: Growth inhibition of yeast strain expressing human SCD1 as sole desaturase (OLE1 deleted), OD600 readout. It counts as cell-based. Conditions: yeast strain expressing human SCD1 as sole desaturase; growth (OD600) after 40 h at 30° C.; read-out: SCD1 IC50.

Regarding `CN1N=C(C(=O)Nc2ccc(Cc3ccccc3)nn2)CCC1=O` [Compound 186, N-(6-benzylpyridazin-3-yl)-1-methyl-6-oxo-1,4,5,6-tetrahydropyridazine-3-carboxamide], the IC50 (as a rule, the concentration that inhibits the measured activity by half) on human SCD5 is 12600 nM; on human SCD1 it was greater than 45000 nM.

On to `CN1N=C(C(=O)Nc2ccc(Cc3cccc(C4CC4)c3)nn2)CCC1=O` [Compound 187, N-(6-(3-cyclopropylbenzyl)pyridazin-3-yl)-1-methyl-6-oxo-1,4,5,6-tetrahydropyridazine-3-carboxamide], for which the IC50 was 6510 nM on human SCD5 and greater than 45000 nM at human SCD1.

`CN1N=C(C(=O)Nc2ccc(Cc3ccc(Cl)c(Cl)c3)nn2)CCC1=O` [Compound 188, N-(6-(3,4-dichlorobenzyl)pyridazin-3-yl)-1-methyl-6-oxo-1,4,5,6-tetrahydropyridazine-3-carboxamide]: the IC50 was 190 nM on human SCD5 and 4400 nM at human SCD1.

Take `Cn1cc(NC(=O)c2ccc(Cc3cccc(Cl)c3)nn2)ccc1=O` [Compound 189, 6-(3-chlorobenzyl)-N-(1-methyl-6-oxo-1,6-dihydropyridin-3-yl)pyridazine-3-carboxamide]: the IC50 was 5070 nM on human SCD5 and greater than 45000 nM on human SCD1.

For `CN1N=C(NC(=O)c2ccc(Cc3cccc(Cl)c3)nn2)CCC1=O` [Compound 190, 6-(3-chlorobenzyl)-N-(1-methyl-6-oxo-1,4,5,6-tetrahydropyridazin-3-yl)pyridazine-3-carboxamide], the IC50 on human SCD5 was 33000 nM; at human SCD1, greater than 45000 nM.

Turning to `CN1N=C(C(=O)Nc2ccc(Cc3cccc(Br)c3)nn2)CCC1=O` [Compound 191, N-(6-(3-bromobenzyl)pyridazin-3-yl)-1-methyl-6-oxo-1,4,5,6-tetrahydropyridazine-3-carboxamide], the IC50 on human SCD5 is 2680 nM; at human SCD1 it was greater than 45000 nM.

`CN1N=C(C(=O)Nc2ccc(Cc3ccc(F)c(Cl)c3)nn2)CCC1=O` [Compound 192, N-(6-(3-chloro-4-fluorobenzyl)pyridazin-3-yl)-1-methyl-6-oxo-1,4,5,6-tetrahydropyridazine-3-carboxamide]: the IC50 on human SCD5 was found to be 1310 nM; on human SCD1, 11900 nM.

Take `CN1N=C(C(=O)Nc2ccc(Cc3cccc(C(F)(F)F)c3)nn2)CCC1=O` [Compound 194, 1-methyl-6-oxo-N-(6-(3-(trifluoromethyl)benzyl)pyridazin-3-yl)-1,4,5,6-tetrahydropyridazine-3-carboxamide]: the figures for the IC50 at human SCD5 and on human SCD1 were 1540 nM and greater than 45000 nM, respectively.

`Cn1nc(C(=O)Nc2ccc(Cc3cccc(F)c3)nn2)ccc1=O` [Compound 195, N-(6-(3-fluorobenzyl)pyridazin-3-yl)-1-methyl-6-oxo-1,6-dihydropyridazine-3-carboxamide]: the IC50 is 2310 nM at human SCD5 and 15900 nM on human SCD1.

Consider `Cn1nc(C(=O)Nc2ccc(Cc3cccc(Cl)c3)nn2)ccc1=O` [Compound 196, N-(6-(3-chlorobenzyl)pyridazin-3-yl)-1-methyl-6-oxo-1,6-dihydropyridazine-3-carboxamide], for which the IC50 turned out to be 1560 nM at human SCD5 and 5580 nM on human SCD1.

On to `CN1N=C(C(=O)Nc2ccc(Cc3cccc(Cl)c3)nn2)CCC1=O` [Compound 197, N-(6-(3-chlorobenzyl)pyridazin-3-yl)-1-methyl-6-oxo-1,4,5,6-tetrahydropyridazine-3-carboxamide], for which the values for the half-inhibitory concentration (IC50) at human SCD5 and at human SCD1 were 370 nM and 2750 nM, respectively.

As for `CN1N=C(C(=O)Nc2ccc(CC3CCCCC3)nn2)CCC1=O` [Compound 198, N-(6-(cyclohexylmethyl)pyridazin-3-yl)-1-methyl-6-oxo-1,4,5,6-tetrahydropyridazine-3-carboxamide], the IC50 is 7180 nM at human SCD5 and greater than 45000 nM on human SCD1.

Turning to `CCn1nc(C(=O)Nc2ccc(Cc3cccc(F)c3)nn2)ccc1=O` [Compound 199, 1-ethyl-N-(6-(3-fluorobenzyl)pyridazin-3-yl)-6-oxo-1,6-dihydropyridazine-3-carboxamide], the IC50 at human SCD5 was 5800 nM; on human SCD1, greater than 45000 nM.

`Cn1nc(C(=O)Nc2ncc(Cc3cccc(F)c3)s2)ccc1=O` [Compound 202, N-(5-(3-fluorobenzyl)thiazol-2-yl)-1-methyl-6-oxo-1,6-dihydropyridazine-3-carboxamide]: the IC50 at human SCD5 and at human SCD1 was 20 nM in each case.

With `COC(c1cccc(F)c1)c1cnc(NC(=O)C2=NN(C)C(=O)CC2)s1` (stereo not drawn) [Compound 204, N-(5-((3-fluorophenyl)(methoxy)methyl)thiazol-2-yl)-1-methyl-6-oxo-1,4,5,6-tetrahydropyridazine-3-carboxamide], the IC50 at human SCD5 is 27900 nM; at human SCD1, greater than 45000 nM.

Turning to `CN1N=C(C(=O)Nc2ncc(C(O)c3cccc(F)c3)s2)CCC1=O` (stereo not drawn) [Compound 205, N-(5-((3-fluorophenyl)(hydroxy)methyl)thiazol-2-yl)-1-methyl-6-oxo-1,4,5,6-tetrahydropyridazine-3-carboxamide], the IC50 at human SCD5 is 29400 nM; on human SCD1 it was greater than 45000 nM.

With `CN1N=C(C(=O)Nc2ncc(Cc3ccccc3F)s2)CCC1=O` [Compound 206, N-(5-(2-fluorobenzyl)thiazol-2-yl)-1-methyl-6-oxo-1,4,5,6-tetrahydropyridazine-3-carboxamide], the IC50 is 2510 nM at human SCD5 and 3360 nM on human SCD1.

Consider `CN1N=C(C(=O)Nc2ncc(Cc3cccc(Cl)c3)s2)CCC1=O` [Compound 207, N-(5-(3-chlorobenzyl)thiazol-2-yl)-1-methyl-6-oxo-1,4,5,6-tetrahydropyridazine-3-carboxamide], for which the half-inhibitory concentration (IC50) came out at 10 nM on human SCD5 and 90 nM at human SCD1.

Regarding `CN1N=C(C(=O)Nc2ncc(Cc3ccc(F)cc3)s2)CCC1=O` [Compound 208, N-(5-(4-fluorobenzyl)thiazol-2-yl)-1-methyl-6-oxo-1,4,5,6-tetrahydropyridazine-3-carboxamide], the IC50 on human SCD5 was determined as 50 nM; on human SCD1, 130 nM.

Consider `CN1N=C(C(=O)Nc2ncc(Cc3cccc(C#N)c3)s2)CCC1=O` [Compound 209, N-(5-(3-cyanobenzyl)thiazol-2-yl)-1-methyl-6-oxo-1,4,5,6-tetrahydropyridazine-3-carboxamide], for which the values for the IC50 on human SCD5 and at human SCD1 were 2450 nM and 1690 nM, respectively.

On to `COc1cccc(Cc2cnc(NC(=O)c3ccc(=O)n(C)n3)s2)c1` [Compound 212, N-(5-(3-methoxybenzyl)thiazol-2-yl)-1-methyl-6-oxo-1,6-dihydropyridazine-3-carboxamide], for which the IC50 at human SCD5 stood at 40 nM; on human SCD1, 150 nM.

As to `CN1N=C(C(=O)Nc2ncc(Cc3ccc(Cl)cc3)s2)CCC1=O` [Compound 213, N-(5-(4-chlorobenzyl)thiazol-2-yl)-1-methyl-6-oxo-1,4,5,6-tetrahydropyridazine-3-carboxamide], the IC50 worked out at 380 nM on human SCD5 and 390 nM on human SCD1.

Take `CC(c1cccc(F)c1)c1cnc(NC(=O)C2=NN(C)C(=O)CC2)s1` (stereo not drawn) [Compound 214, N-(5-(1-(3-fluorophenyl)ethyl)thiazol-2-yl)-1-methyl-6-oxo-1,4,5,6-tetrahydropyridazine-3-carboxamide]: the IC50 on human SCD5 was 1750 nM; at human SCD1, 14500 nM.

Turning to `CN1N=C(C(=O)Nc2ncc(Cc3cc(F)cc(Cl)c3)s2)CCC1=O` [Compound 216, N-(5-(3-chloro-5-fluorobenzyl)thiazol-2-yl)-1-methyl-6-oxo-1,4,5,6-tetrahydropyridazine-3-carboxamide], the IC50 is 20 nM on human SCD5 and 10 nM on human SCD1.
